# Reference: the supplement of paper PMC10307832
# What was measured:
# Assay in all cases: relative viability (nuclei count vs DMSO), 5 days (fraction); higher = more cells survive
# [1] = compound: O=C(NC1CCNCC1)c1n[nH]cc1NC(=O)c1c(Cl)cccc1Cl [AT-7519] + CC1(C)CCC(c2ccc(Cl)cc2)=C(CN2CCN(c3ccc(C(=O)NS(=O)(=O)c4ccc(N[C@H](CCN5CCOCC5)CSc5ccccc5)c(S(=O)(=O)C(F)(F)F)c4)cc3)CC2)C1 [Navitoclax] (partner 0.5 µM)
# In short: (§1)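 Lung cancer cell lines, seeded in 1536-well plates, were treated the following day by pin tool with a single drug or with five library-drug doses (not always all listed) in √10 steps on top of a fixed anchor-drug dose. Cells were fixed and nuclei stained in one step after 5 days, and nuclei were counted. Relative viability is the nuclei count for treated wells divided by that for vehicle wells, reported as medians of duplicate plates.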
# [2] = compound: C1=CC2=C(C=C(C(=C2N=C1)O)N=NC3=CC4=C(C=C3)C=C(C=C4)S(=O)(=O)O)S(=O)(=O)O + N=C(N)NC(=N)NCCc1ccccc1 [Phenformin] (partner 250 µM)
# In short: as §1
# [3] = compound: C1=CC2=C(C=C(C(=C2N=C1)O)N=NC3=CC4=C(C=C3)C=C(C=C4)S(=O)(=O)O)S(=O)(=O)O + CC(=O)Nc1cccc(-n2c(=O)n(C3CC3)c(=O)c3c(Nc4ccc(I)cc4F)n(C)c(=O)c(C)c32)c1 [Trametinib] (partner 0.02 µM)
# In short: as §1
# [4] = compound: C1=CC2=C(C=C(C(=C2N=C1)O)N=NC3=CC4=C(C=C3)C=C(C=C4)S(=O)(=O)O)S(=O)(=O)O + Nc1ncn([C@H]2C[C@H](O)[C@@H](CO)O2)c(=O)n1 [Decitabine] (partner 2 µM)
# In short: as §1
Cell Line,relative viability ([1]; first compound 0.01 µM),relative viability ([1]; first compound 0.03162 µM),relative viability ([1]; first compound 0.3162 µM),relative viability ([1]; first compound 1 µM),relative viability ([2]; first compound 0.08 µM),relative viability ([2]; first compound 0.253 µM),relative viability ([2]; first compound 0.8 µM),relative viability ([2]; first compound 2.53 µM),relative viability ([2]; first compound 8 µM),relative viability ([3]; first compound 0.08 µM),relative viability ([3]; first compound 0.253 µM),relative viability ([3]; first compound 0.8 µM),relative viability ([3]; first compound 2.53 µM),relative viability ([3]; first compound 8 µM),relative viability ([4]; first compound 0.08 µM),relative viability ([4]; first compound 0.253 µM),relative viability ([4]; first compound 0.8 µM),relative viability ([4]; first compound 2.53 µM),relative viability ([4]; first compound 8 µM)
NCI-H2347,0.741,0.675,0.745,0.59,0.356,0.318,0.438,0.558,0.303,0.316,0.303,0.279,0.262,0.316,0.586,0.61,0.602,0.629,0.614
NCI-H1993,0.895,0.781,0.984,0.548,0.492,0.488,0.537,0.528,0.527,0.49,0.465,0.575,0.539,0.504,0.573,0.669,0.624,0.59,0.634
NCI-H322M,1.07,1.16,1.09,1.07,0.877,0.744,0.727,0.705,0.809,0.535,0.544,0.566,0.504,0.528,0.764,0.715,0.708,0.723,0.768
NCI-H838,1.22,1.06,1.09,0.147,0.497,0.558,0.557,0.483,0.551,0.566,0.543,0.453,0.508,0.653,0.469,0.441,0.434,0.514,0.44
HARA,1.07,1.12,1.12,0.97,0.467,0.459,0.464,0.544,0.479,0.878,0.442,0.869,0.82,0.532,0.69,0.584,0.52,0.519,0.563
NCI-H2087,1.03,0.964,1.04,0.0625,0.469,0.447,0.452,0.455,0.459,0.2,0.213,0.196,0.217,0.236,0.244,0.259,0.222,0.131,0.24
NCI-H1437,1.03,1.08,1.1,0.455,0.257,0.242,0.251,0.303,0.317,0.528,0.477,0.524,0.623,0.641,0.603,0.567,0.655,0.586,0.566
